Experimental data published in PubChem BioAssay (NCI).
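Growth conditions: 96-well plates. Treatment: test compound, 48 hours, 5 concentrations. Analysis: linear interpolation between bracketing concentrations; unreached endpoints set to highest concentration. TGI: total growth inhibition.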

How the values were obtained:
Assay in all cases: NCI tumour cell line growth inhibition, 48 h
PC-3 prostate = test system: PC-3 prostate
HOP-62 NSCLC = test system: HOP-62 NSCLC
786-0 renal = test system: 786-0 renal
HS 578T breast = test system: HS 578T breast
SK-MEL-28 melanoma = test system: SK-MEL-28 melanoma
OVCAR-8 ovarian = test system: OVCAR-8 ovarian
SK-MEL-2 melanoma = test system: SK-MEL-2 melanoma
IGROV1 ovarian = test system: IGROV1 ovarian
MOLT-4 leukemia = test system: MOLT-4 leukemia
EKVX NSCLC = test system: EKVX NSCLC
NCI-H460 lung = test system: NCI-H460 lung
HCT-15 colon = test system: HCT-15 colon
NCI-H226 lung = test system: NCI-H226 lung
MDA-MB-435 = test system: MDA-MB-435
CCRF-CEM leukemia = test system: CCRF-CEM leukemia
SF-295 CNS = test system: SF-295 CNS
NCI-H23 lung = test system: NCI-H23 lung
HL-60(TB) leukemia = test system: HL-60(TB) leukemia
COLO 205 colon = test system: COLO 205 colon
KM12 colon = test system: KM12 colon
A498 renal = test system: A498 renal
HOP-92 NSCLC = test system: HOP-92 NSCLC
OVCAR-5 ovarian = test system: OVCAR-5 ovarian
LOX IMVI melanoma = test system: LOX IMVI melanoma
SK-OV-3 ovarian = test system: SK-OV-3 ovarian
UACC-257 melanoma = test system: UACC-257 melanoma
SR leukemia = test system: SR leukemia
A549 NSCLC = test system: A549 NSCLC
T-47D breast = test system: T-47D breast
ACHN renal = test system: ACHN renal
OVCAR-3 ovarian = test system: OVCAR-3 ovarian
SW-620 colon = test system: SW-620 colon
MDA-MB-231 breast = test system: MDA-MB-231 breast
HCT-116 colon = test system: HCT-116 colon
CAKI-1 renal = test system: CAKI-1 renal
NCI/ADR-RES ovarian = test system: NCI/ADR-RES ovarian
SNB-19 CNS = test system: SNB-19 CNS
UACC-62 melanoma = test system: UACC-62 melanoma
HT29 colon = test system: HT29 colon
M14 melanoma = test system: M14 melanoma
RPMI-8226 leukemia = test system: RPMI-8226 leukemia
BT-549 breast = test system: BT-549 breast
TK-10 renal = test system: TK-10 renal
U251 CNS = test system: U251 CNS
SNB-75 CNS = test system: SNB-75 CNS
UO-31 renal = test system: UO-31 renal
DU-145 prostate = test system: DU-145 prostate
HCC-2998 colon = test system: HCC-2998 colon
MALME-3M melanoma = test system: MALME-3M melanoma
SF-268 CNS = test system: SF-268 CNS

## O=C(CC(c1ccccc1)C(C(=O)c1ccncc1)C(CC(=O)c1ccncc1)c1ccccc1)c1ccncc1 (stereo not given)
PC-3 prostate
  TGI: > 100 µM
HOP-62 NSCLC
  TGI: > 100 µM
786-0 renal
  TGI: > 100 µM
HS 578T breast
  TGI: > 100 µM
SK-MEL-28 melanoma
  TGI: > 100 µM
OVCAR-8 ovarian
  TGI: > 100 µM
SK-MEL-2 melanoma
  TGI: > 100 µM
IGROV1 ovarian
  TGI: > 100 µM
MOLT-4 leukemia
  TGI: > 100 µM
EKVX NSCLC
  TGI: > 100 µM
NCI-H460 lung
  TGI: > 100 µM
HCT-15 colon
  TGI: > 100 µM
NCI-H226 lung
  TGI: > 100 µM
MDA-MB-435
  TGI: > 100 µM
CCRF-CEM leukemia
  TGI: > 100 µM
SF-295 CNS
  TGI: 70.3 µM
NCI-H23 lung
  TGI: > 100 µM
HL-60(TB) leukemia
  TGI: > 100 µM
COLO 205 colon
  TGI: > 100 µM
KM12 colon
  TGI: > 100 µM
A498 renal
  TGI: > 100 µM
HOP-92 NSCLC
  TGI: > 100 µM
OVCAR-5 ovarian
  TGI: > 100 µM
LOX IMVI melanoma
  TGI: > 100 µM
SK-OV-3 ovarian
  TGI: 61.1 µM
UACC-257 melanoma
  TGI: > 100 µM
SR leukemia
  TGI: > 100 µM
A549 NSCLC
  TGI: > 100 µM
T-47D breast
  TGI: > 100 µM
ACHN renal
  TGI: > 100 µM
OVCAR-3 ovarian
  TGI: > 100 µM
SW-620 colon
  TGI: > 100 µM
MDA-MB-231 breast
  TGI: > 100 µM
HCT-116 colon
  TGI: > 100 µM
CAKI-1 renal
  TGI: > 100 µM
NCI/ADR-RES ovarian
  TGI: > 100 µM
SNB-19 CNS
  TGI: > 100 µM
UACC-62 melanoma
  TGI: > 100 µM
HT29 colon
  TGI: > 100 µM
M14 melanoma
  TGI: > 100 µM
RPMI-8226 leukemia
  TGI: > 100 µM
BT-549 breast
  TGI: 57.3 µM
TK-10 renal
  TGI: > 100 µM
U251 CNS
  TGI: > 100 µM
SNB-75 CNS
  TGI: > 100 µM
UO-31 renal
  TGI: > 100 µM
DU-145 prostate
  TGI: > 100 µM
HCC-2998 colon
  TGI: > 100 µM
MALME-3M melanoma
  TGI: > 100 µM
SF-268 CNS
  TGI: > 100 µM
